The values below come from patent publication US11590119B2, “(S)-2-(1-(5-(cyclohexylcarbamoyl)-6-(propylthio)pyridin-2-yl)piperidin-3-yl)acetic acid for use in medicine” (University of Leeds, priority 2019, dated 2023).

Data set [1] deals with 11β-HSD1 (Homo sapiens, UniProt P28845). The data set can be described thus: 11β-HSD1 activity (conversion of cortisone to cortisol) in primary human dermal fibroblasts. The format is cell-based. Details: from tissue; host or cells: adipose tissue of abdominally obese healthy adult male volunteers. The method, then:
FIG. 5: 11β-HSD1 activity in primary human dermal fibroblasts.
In order to investigate the effects, prevalence and relevance of 11β-HSD1 in human skin and diabetic wound healing the effects of the proinflammatory cytokine, IL-1β on human dermal fibroblasts (HDFs) in culture was assessed in the preclinical setting. […] In these experiments RU486 (mifepristone) was used as a competitive cortisol antagonist.

Data set [2] deals with 11β-HSD. The following applies: mice, topical treatment, oral corticosterone; cited from earlier work.
The test system of data set [3] is 11β-HSD1 mRNA expression. The data set can be described thus: 11β-HSD1 mRNA expression in cultured human dermal fibroblasts. The following applies: HDFs in culture; cortisol 24 h; IL-1β 10 ng/mL; cortisol 100 nM in combination. The format is cell-based.
Data set [4] has as its system HUVEC tubule formation. As to the kind of experiment: HUVEC tubule formation, in vitro model of angiogenesis. Conditions: IL-1β 10 ng/ml; cortisone 200 nM; AZD4017 1 μM with cortisone; biological n=1. The format is cell-based, human.

Chain of 11β-HSD1 (P28845 whole entry): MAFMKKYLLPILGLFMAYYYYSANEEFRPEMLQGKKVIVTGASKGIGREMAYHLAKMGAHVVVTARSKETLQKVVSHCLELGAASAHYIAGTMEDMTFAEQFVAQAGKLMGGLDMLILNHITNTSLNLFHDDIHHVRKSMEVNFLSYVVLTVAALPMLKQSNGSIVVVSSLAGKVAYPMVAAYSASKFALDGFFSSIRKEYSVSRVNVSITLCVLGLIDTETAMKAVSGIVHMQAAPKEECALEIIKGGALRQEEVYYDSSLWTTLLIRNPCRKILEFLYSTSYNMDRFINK

As for `CC1(C)[C@@H](OC(=O)CCC(=O)O)CC[C@]2(C)[C@H]3C(=O)C=C4[C@@H]5C[C@@](C)(C(=O)O)CC[C@]5(C)CC[C@@]4(C)[C@]3(C)CC[C@@H]12` [carbenoxolone, reference compound], the “inhibition of conversion of E to F” value in data set [1] (25 μM, 18 h, HDFs pretreated with IL-1β and cortisol) was “did not significantly inhibit”. In addition, the “effect on delay in wound healing caused by corticosteroid excess” value in data set [2] is given as “reverse the delay in wound healing”.
In the case of `C[C@]12CCC(=O)C=C1CC[C@@H]1[C@@H]2[C@@H](O)C[C@@]2(C)[C@H]1CC[C@]2(O)C(=O)CO` [cortisol, reference compound], in data set [3], the “increase in 11β-HSD1 mRNA expression” value was determined as 6 fold.
For `C[C@]12CCC(=O)C=C1CC[C@@H]1[C@@H]2C(=O)C[C@@]2(C)[C@H]1CC[C@]2(O)C(=O)CO` [cortisone, reference compound], in data set [4], the tubule formation result was “blocked”.
On to “IL-1β: interleukin 1β (pro-inflammatory cytokine)”, for which the “increase in conversion of cortisone (E) to cortisol (F) relative to untreated HDFs” value in data set [1] (24 h IL-1β pretreatment, conversion over 48 h) is 6 fold. Further, the tubule formation entry in data set [4] was “stimulate tubule formation”. In addition, the “increase in 11β-HSD1 mRNA expression” value in data set [3] was determined as 10 fold.
